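Each compound was tested at five concentrations against cells in 96-well plates for 48 hours. GI50 marks 50% less growth.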 Calls of active or inactive are those of the source. Cut-off read from the data, not from the text of the source: active = GI50 up to about 1.1 µM and inactive = higher.
What was measured:
Experiment in all cases: NCI tumour cell line growth inhibition, 48 h
HCT-15 = test system: HCT-15
K562 = test system: K562
SR = test system: SR
ACHN = test system: ACHN
HCC 2998 = test system: HCC 2998
OVCAR-4 = test system: OVCAR-4
NCI-H522 = test system: NCI-H522
NCI-H226 = test system: NCI-H226
SN12C = test system: SN12C
PC-3 = test system: PC-3
UO-31 = test system: UO-31
HCT-116 = test system: HCT-116
MDA-N = test system: MDA-N
DU-145 = test system: DU-145
MDA-MB-435 = test system: MDA-MB-435
A549 = test system: A549
OVCAR-5 = test system: OVCAR-5
COLO 205 = test system: COLO 205
HL-60 = test system: HL-60
SK-MEL-5 = test system: SK-MEL-5

In the case of `CCOP(=O)(OCC)/C(C#N)=C/c1c[nH]c2ccccc12`, the GI50 (HCT-15) was over 100 µM, the GI50 (K562) was > 100 µM (inactive) and the GI50 (SR) was > 100 µM (inactive). The GI50 (ACHN) was > 100 µM (inactive), the GI50 (HCC 2998) was > 100 µM (inactive) and the GI50 (OVCAR-4) was > 100 µM (inactive). For the same compound, the GI50 (NCI-H522) was > 100 µM (inactive), the GI50 (NCI-H226) was > 100 µM (inactive) and the GI50 (SN12C) was > 100 µM (inactive). For the same compound, the GI50 (PC-3) was > 100 µM (inactive), the GI50 (UO-31) was 45.8 µM (inactive) and the GI50 (HCT-116) was > 100 µM (inactive). For the same compound, the GI50 (MDA-N) was > 100 µM (inactive), the GI50 (DU-145) was > 100 µM (inactive) and the GI50 (MDA-MB-435) was > 100 µM (inactive). The GI50 (A549) was > 100 µM (inactive), the GI50 (OVCAR-5) was > 100 µM (inactive) and the GI50 (COLO 205) was > 100 µM (inactive). The GI50 (HL-60) was > 100 µM (inactive) and the GI50 (SK-MEL-5) was > 100 µM (inactive).

— ChEMBL document CHEMBL1201862, “PubChem BioAssay data set” (2004)
